Measurements taken from PMC10322702 (Nature Chemistry, 2023).
Values joined by “and” are separate entries in the source; they are usually repeats but may differ in a detail not shown here. Identical values can stand only once. Numbered stars: 1 amine (or outer) side, 2 acyl side, 3 side chain; on linkers, the order of the positions; unused ones are H or OH. Bridge positions count the residues as written; N and C are the ends. Square brackets hold non-standard residues; d marks the D form. Peptide text beside a SMILES is read from it. Acbc(cis-1,3) = O=C([C@H]1C[C@@H](N[*:1])C1)[*:2]; X1 = O=C([C@@H]1CC[C@H](N[*:1])C1)[*:2]

How the values were obtained:
[1] = target: T1, SARS-CoV-2 M^pro (Severe acute respiratory syndrome coronavirus 2, UniProt P0DTD1); experiment: biochemical; assay type: binding; conditions: for kon: read-out: ka (kinetic association)
[2] = target: T1, SARS-CoV-2 M^pro; experiment: biochemical; assay type: biochemical
[3] = Serum stability assay in human serum (LC/MS)
[4] = 37 °C, incubation time 1 h, relative to 0 h = 100%, technical replicates, 60 min
[5] = 37 °C, incubation time 4 h, relative to 0 h = 100%, technical replicates, 240 min
[6] = 37 °C, incubation time 8 h, relative to 0 h = 100%, technical replicates, 480 min
[7] = 37 °C, incubation time 24 h, relative to 0 h = 100%, technical replicates, 1440 min
[8] = 37 °C, incubation time 50 h, relative to 0 h = 100%, technical replicates, 3000 min
[9] = human, Remaining peptide (%), 37 °C, incubation time 1 h, relative to 0 h = 100%, technical replicates
[10] = human, Remaining peptide (%), 37 °C, incubation time 4 h, relative to 0 h = 100%, technical replicates
[11] = human, Remaining peptide (%), 37 °C, incubation time 8 h, relative to 0 h = 100%, technical replicates
[12] = human, Remaining peptide (%), 37 °C, incubation time 24 h, relative to 0 h = 100%, technical replicates
[13] = human, Remaining peptide (%), 37 °C, incubation time 50 h, relative to 0 h = 100%, technical replicates
[14] = 37 °C, incubation time 2 h, relative to 0 h = 100%, technical replicates, 120 min
[15] = human, Remaining peptide (%), 37 °C, incubation time 2 h, relative to 0 h = 100%, technical replicates
[16] = 37 °C, incubation time 0.5 h, relative to 0 h = 100%, technical replicates, 30 min
[17] = human, Remaining peptide (%), 37 °C, incubation time 0.5 h, relative to 0 h = 100%, technical replicates

| SMILES | Kd [1] | kd (kinetic dissociation) [1] | kon [1] | IC50 [2] | inhibition at 2.75 µM [2] | Remaining peptide (%) [3, 4] | Remaining peptide (%) [3, 5] | Remaining peptide (%) [3, 6] | Remaining peptide (%) [3, 7] | half-life at 10 μM ([3]; human) | remaining at 1 h, 10 μM [3, 9] | remaining at 4 h, 10 μM [3, 10] | remaining at 8 h, 10 μM [3, 11] | remaining at 24 h, 10 μM [3, 12] | inhibition of M^pro (in words) [2] | Remaining peptide (%) [3, 14] | remaining at 2 h, 10 μM [3, 15] | further results |
| --- | --- | --- | --- | --- | --- | --- | --- | --- | --- | --- | --- | --- | --- | --- | --- | --- | --- | --- |
| CC(C)C[C@@H]1NC(=O)[C@H]([C@@H](C)O)NC(=O)[C@H](Cc2ccc(O)cc2)NC(=O)[C@H]([C@@H](C)O)NC(=O)[C@H](Cc2c[nH]cn2)NC(=O)[C@@H]2CCCN2C(=O)[C@@H]2CCCN2C(=O)[C@H](Cc2ccccc2)NC(=O)[C@H]2C[C@H](C2)NC(=O)[C@H](Cc2c[nH]cn2)NC(=O)[C@H](Cc2ccccc2)NC(=O)[C@@H](Cc2ccc(O)cc2)NC(=O)CSC[C@H](C(N)=O)NC1=O [GM1] ({CH2CO}-[dY]FH[Acbc(cis-1,3)]FPPHTYTL[dC]-NH2; thioether N-13) | 0.0023 µM | 0.94 10^-3 s^-1 | 410000 M⁻¹ s⁻¹ | 0.04 µM | 100% | 111.08% and 111.88% | 108.25% and 114.45% | 111.46% and 107.42% | 74.66% and 74.47% | 90 h | 111% | 115% | 116% | 77.3% |  |  |  | inhibition at 0.000141 µM [2]: 4.71%; inhibition at 0.0347 µM [2]: 43.7%; inhibition at 0.102 µM [2]: 75.5%; inhibition at 0.309 µM [2]: 93.7%; inhibition at 0.933 µM [2]: 100%; inhibition at 8.32 µM [2]: 100%; Remaining peptide (%) [3, 8]: 63.33% and 64.88%; Remaining peptide (%) ([3]; 37 °C, incubation time 100 h, relative to 0 h = 100%, technical replicates, 6000 min): 44.95% and 47.73%; remaining at 50 h, 10 μM [3, 13]: 67.1%; remaining at 100 h, 10 μM ([3]; human, Remaining peptide (%), 37 °C, incubation time 100 h, relative to 0 h = 100%, technical replicates): 49% |
| CC(C)C[C@@H]1NC(=O)[C@H]([C@@H](C)O)NC(=O)[C@H](Cc2ccc(O)cc2)NC(=O)[C@H]([C@@H](C)O)NC(=O)[C@H](Cc2c[nH]cn2)NC(=O)[C@@H]2CCCN2C(=O)[C@@H]2CCCN2C(=O)[C@H](Cc2ccccc2)NC(=O)[C@H](C)NC(=O)[C@H](Cc2c[nH]cn2)NC(=O)[C@H](Cc2ccccc2)NC(=O)[C@@H](Cc2ccc(O)cc2)NC(=O)CSC[C@H](C(N)=O)NC1=O [GM1γ^14A] ({CH2CO}-[dY]FHAFPPHTYTL[dC]-NH2; thioether N-13) | 0.01 µM | 3.2 10^-3 s^-1 | 320000 M⁻¹ s⁻¹ | > 5 µM |  | 87.05% and 85.28% | 65.45% and 64.12% | 51.43% and 52.89% | 25.58% and 25.19% | 8.3 h | 84.3% | 63.2% | 56.1% | 26.4% | inhibition was ablated | 71.54% and 71.96% | 70.6% | fold change in binding affinity relative to the original peptide [1]: fourfold weaker; Remaining peptide (%) [3, 8]: 4.30% and 4.38%; remaining at 50 h, 10 μM [3, 13]: 4.46% |
| CC[C@H](C)[C@@H]1NC(=O)[C@H](CO)NC(=O)[C@H](Cc2ccccc2)NC(=O)[C@H]2C[C@H](C2)NC(=O)[C@H](Cc2c[nH]cn2)NC(=O)[C@H](Cc2ccccc2)NC(=O)[C@@H](Cc2ccc(O)cc2)NC(=O)CSC[C@H](C(N)=O)NC(=O)[C@H](CC(C)C)NC(=O)[C@H](CCCNC(=N)N)NC(=O)[C@H](Cc2ccc(O)cc2)NC(=O)[C@H](CCCNC(=N)N)NC(=O)[C@H](Cc2ccccc2)NC1=O [GM2] ({CH2CO}-[dY]FH[Acbc(cis-1,3)]FSIFRYRL[dC]-NH2; thioether N-13) | 0.071 µM | 15 10^-3 s^-1 | 210000 M⁻¹ s⁻¹ | 1.75 µM | 75.7% | 55.82% and 51.95% | 19.16% and 17.53% | 10.08% and 8.62% | 1.74% and 1.76% | 1.1 h | 48.3% | 17.5% | 9.99% | 1.85% |  | 34.08% and 32.68% | 36% | inhibition at 8.32 µM [2]: 96.8%; Remaining peptide (%) [3, 16]: 61.67% and 57.11%; remaining at 0.5 h, 10 μM [3, 17]: 57.7% |
| CC(C)C[C@@H]1NC(=O)[C@@H](Cc2ccc(O)cc2)NC(=O)CSC[C@H](C(N)=O)NC(=O)[C@H](C)NC(=O)[C@H](C)NC(=O)[C@H](Cc2ccc(O)cc2)NC(=O)[C@H](CCCNC(=N)N)NC(=O)[C@H](Cc2ccc(O)cc2)NC(=O)[C@@H]2CC[C@@H](C2)NC(=O)[C@H](CO)NC(=O)[C@H](Cc2ccc(O)cc2)NC(=O)[C@H]([C@@H](C)O)NC(=O)[C@H](CO)NC(=O)[C@H](C)NC(=O)[C@H](Cc2ccc(O)cc2)NC(=O)[C@H](Cc2c[nH]cn2)NC1=O [GM3] ({CH2CO}-[dY]LHYASTYS[X1]YRYAA[dC]-NH2; thioether N-16) | 0.062 µM | 13 10^-3 s^-1 | 200000 M⁻¹ s⁻¹ | 2.06 µM | 66.3% | 71.95% and 68.98% | 43.40% and 39.26% | 15.43% and 15.99% |  | 2.5 h | 60.8% | 45.6% | 15.7% | 0% |  | 55.38% and 55.49% | 48.5% | Remaining peptide (%) [3, 16]: 72.71% and 73.43%; remaining at 0.5 h, 10 μM [3, 17]: 67.7% |
| CC(C)C[C@@H]1NC(=O)[C@H](CC(N)=O)NC(=O)[C@H](CC(C)C)NC(=O)[C@H]2C[C@H](C2)NC(=O)[C@H](C)NC(=O)[C@H](Cc2ccccc2)NC(=O)[C@@H](Cc2ccc(O)cc2)NC(=O)CSC[C@H](C(N)=O)NC(=O)CNC(=O)[C@@H]2CCCN2C(=O)[C@H](CCCNC(=N)N)NC(=O)[C@H](Cc2ccc(O)cc2)NC(=O)CNC1=O [GM4H3A] ({CH2CO}-[dY]FA[Acbc(cis-1,3)]LNLGYRPG[dC]-NH2; thioether N-13) | > 10 µM |  |  | > 25 µM |  |  |  |  |  |  |  |  |  |  | no inhibition |  |  |  |
| CC(C)C[C@@H]1NC(=O)[C@H](CC(N)=O)NC(=O)[C@H](CC(C)C)NC(=O)[C@H]2C[C@H](C2)NC(=O)[C@H](CCC(=O)O)NC(=O)[C@H](Cc2ccccc2)NC(=O)[C@@H](Cc2ccc(O)cc2)NC(=O)CSC[C@H](C(N)=O)NC(=O)CNC(=O)[C@@H]2CCCN2C(=O)[C@H](CCCNC(=N)N)NC(=O)[C@H](Cc2ccc(O)cc2)NC(=O)CNC1=O [GM4H3E] ({CH2CO}-[dY]FE[Acbc(cis-1,3)]LNLGYRPG[dC]-NH2; thioether N-13) | 0.36 µM | 7.1 10^-3 s^-1 | 20000 M⁻¹ s⁻¹ | > 25 µM |  |  |  |  |  |  |  |  |  |  | observed only with the highest tested concentration (25 µM) |  |  |  |
| CC(C)C[C@@H]1NC(=O)[C@H](CC(N)=O)NC(=O)[C@H](CC(C)C)NC(=O)[C@H](CC(N)=O)NC(=O)[C@H](Cc2c[nH]cn2)NC(=O)[C@H](Cc2ccccc2)NC(=O)[C@@H](Cc2ccc(O)cc2)NC(=O)CSC[C@H](C(N)=O)NC(=O)CNC(=O)[C@@H]2CCCN2C(=O)[C@H](CCCNC(=N)N)NC(=O)[C@H](Cc2ccc(O)cc2)NC(=O)CNC1=O [GM4γ^14N] ({CH2CO}-[dY]FHNLNLGYRPG[dC]-NH2; thioether N-13) | 0.48 µM | 9.5 10^-3 s^-1 | 20000 M⁻¹ s⁻¹ | 1 µM |  |  |  |  |  |  |  |  |  |  |  |  |  | fold less active than GM4 (M^pro inhibition) [2]: 20 fold; inhibition at 16.6 µM [2]: 100%; inhibition at 50.1 µM [2]: 100% |
| CC[C@H](C)[C@@H]1NC(=O)[C@H](Cc2ccccc2)NC(=O)[C@@H](Cc2ccc(O)cc2)NC(=O)CSC[C@H](C(N)=O)NC(=O)[C@H]([C@@H](C)CC)NC(=O)[C@@H]2CCCN2C(=O)[C@H](CC(C)C)NC(=O)[C@H]2C[C@H](C2)NC(=O)[C@H](Cc2c[nH]cn2)NC(=O)[C@@H]2CCCN2C(=O)[C@H](CC(=O)O)NC(=O)[C@H](Cc2c[nH]cn2)NC(=O)[C@H](Cc2ccccc2)NC(=O)[C@H]([C@@H](C)CC)NC(=O)[C@H]([C@@H](C)O)NC(=O)[C@H](Cc2c[nH]cn2)NC1=O [GM6] ({CH2CO}-[dY]FIHTIFHDPH[Acbc(cis-1,3)]LPI[dC]-NH2; thioether N-16) | 0.082 µM | 6.4 10^-3 s^-1 | 78000 M⁻¹ s⁻¹ | 2.28 µM |  |  |  |  |  |  |  |  |  |  |  |  |  | inhibition at 5.5 µM [2]: 90.2%; inhibition at 16.6 µM [2]: 100%; inhibition at 50.1 µM [2]: 100% |
| CC[C@H](C)[C@@H]1NC(=O)[C@H](Cc2ccc(O)cc2)NC(=O)[C@H]([C@@H](C)O)NC(=O)[C@H](C)NC(=O)[C@@H]2CC[C@@H](C2)NC(=O)[C@H](CO)NC(=O)[C@H]([C@@H](C)O)NC(=O)[C@H](Cc2ccc(O)cc2)NC(=O)[C@H](Cc2ccccc2)NC(=O)[C@H](Cc2c[nH]cn2)NC(=O)[C@H](CC(C)C)NC(=O)[C@@H](Cc2ccc(O)cc2)NC(=O)CSC[C@H](C(N)=O)NC(=O)[C@@H]2CCCN2C(=O)[C@H](Cc2ccc(O)cc2)NC1=O [GM7, ^AcyLHFYTSγ^2ATYIYPc-NH2] ({CH2CO}-[dY]LHFYTS[X1]ATYIYP[dC]-NH2; thioether N-15) | 0.49 µM | 23 10^-3 s^-1 | 48000 M⁻¹ s⁻¹ | 7.93 µM |  |  |  |  |  |  |  |  |  |  |  |  |  | inhibition at 25.1 µM [2]: 96% |
